Data reported in patent US7169932B2 (priority 2001, dated 2007).

What was measured:
HIV-1 protease (Q7S) = target: T1, HIV-1 protease (Q7S) (Human immunodeficiency virus type 1 group M subtype B, UniProt P04585, Q495S); experiment: HIV-1 Protease RET Assay; format: biochemical; conditions: Ave. Ki (nM), RET assay, Q7S enzyme, pH 4.8, 37 C
T1 construct: made in house
Summary of the method: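 Ki values came from a RET assay on refolded Q7S protease (2 nM active dimer) cleaving RE(EDANS)SQNYPIVQK(DABCYL)R at 5 μM, read at ex 340/em 490 nm. Reactions ran 12 min at 37 C in 0.1M sodium acetate pH 4.8, 1M NaCl, 5 mM DTT, 10% DMSO; curves were fit with the Morrison tight-binding equation.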

HIV-1 = experiment: Cytopathic Effect (CPE) Inhibition Assay (XTT dye reduction); format: cell-based; conditions: Human immunodeficiency virus 1, 144 h, read-out: Ave CPE EC50 (mM)
Summary of the method: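 CEM-SS or MT-2 cells infected with HIV-1 RF or NL4–3 (moi 0.025–0.819), 2×10^4 cells/well, incubated six days with half-log compound dilutions. Viability read by XTT formazan at 450 nm; EC50 is the concentration restoring 50% of uninfected-control formazan, CC50 from uninfected treated cells, therapeutic index CC50/EC50.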

Row | SMILES | melting point | Ki (HIV-1 protease (Q7S)) | EC50 (HIV-1)
1 | C=CCNC(=O)[C@H]1N(C(=O)[C@@H](O)[C@H](Cc2ccccc2)NC(=O)c2cccc(O)c2C)CSC1(C)C | 173 to 175 °C |  | 
2 | COc1ccccc1CNC(=O)[C@H]1N(C(=O)C(O)C(Cc2ccccc2)NC(=O)c2cccc(O)c2C)CSC1(C)C (stereo partly drawn) [Example A3, (R)-3-(2-Hydroxy-3-{[1-(3-hydroxy-2-methyl-phenyl)-methanoyl]-amino}-4-phenyl-butanoyl)-5,5-dimethyl-thiazolidine-4-carboxylic acid 2-methoxy-benzylamide] | 123 to 125 °C | 1.7 nM | 0.00037 mM
3 | Cc1c(O)cccc1C(=O)NC(Cc1ccccc1)C(O)C(=O)N1CSC(C)(C)C1C(=O)NCc1cccc(C(F)(F)F)c1 (centres unmarked) [Example A4, 3-(2-Hydroxy-3-{[1-(3-hydroxy-2-methyl-phenyl)-methanoyl]-amino}-4-phenyl-butanoyl)-5,5-dimethyl-thiazolidine-4-carboxylic acid 3-trifluoromethyl-benzylamide] | 108 to 110 °C | 4.1 nM | 0.000591 mM
4 | Cc1c(O)cccc1C(=O)N[C@@H](Cc1ccccc1)[C@H](O)C(=O)N1CSC(C)(C)[C@H]1C(=O)NCc1ccc(N)cc1 [Example A16, (R)-3-((2S,3S)-2-Hydroxy-3-{[1-(3-hydroxy-2-methyl-phenyl)-methanoyl]-amino}-4-phenyl-butanoyl)-5,5-dimethyl-thiazolidine-4-carboxylic acid 4-amino-benzylamide] | 107 to 109 °C | 0.63 nM | 0.000134 mM
5 | Cc1c(O)cccc1C(=O)N[C@@H](Cc1ccccc1)[C@H](O)C(=O)N1CSC(C)(C)[C@H]1C(=O)N[C@H](C)c1ccccc1 [Example A21, (R)-3-((2S,3S)-2-Hydroxy-3-{[1-(3-hydroxy-2-methyl-phenyl)-methanoyl]-amino}-4-phenyl-butanoyl)-5,5-dimethyl-thiazolidine-4-carboxylic acid ((R)-1-phenyl-ethyl)-amide] | 114 to 115 °C | 1.9 nM | 0.000717 mM
6 | Cc1c(O)cccc1C(=O)N[C@@H](Cc1ccccc1)[C@H](O)C(=O)N1CSC(C)(C)[C@H]1C(=O)NCc1cccc(OC(F)(F)F)c1 [Example A25, (R)-3-((2S,3S)-2-Hydroxy-3-{[1-(3-hydroxy-2-methyl-phenyl)-methanoyl]-amino}-4-phenyl-butanoyl)-5,5-dimethyl-thiazolidine-4-carboxylic acid 3-trifluoromethoxy-benzylamide] | 102 to 105 °C | 5.8 nM | 0.000248 mM
7 | CC/C=C/CNC(=O)[C@H]1N(C(=O)[C@@H](O)[C@H](Cc2ccccc2)NC(=O)c2cccc(O)c2C)CSC1(C)C [Example A36, (R)-3-((2S,3S)-2-Hydroxy-3-{[1-(3-hydroxy-2-methyl-phenyl)-methanoyl]-amino}-4-phenyl-butanoyl)-5,5-dimethyl-thiazolidine-4-carboxylic acid (E)-pent-2-enylamide] | 113 to 115 °C | 0.59 nM | 0.000519 mM
8 | CC/C=C\CNC(=O)[C@H]1N(C(=O)[C@@H](O)[C@H](Cc2ccccc2)NC(=O)c2cccc(O)c2C)CSC1(C)C [Example A37, (R)-3-((2S,3S)-2-Hydroxy-3-{[1-(3-hydroxy-2-methyl-phenyl)-methanoyl]-amino}-4-phenyl-butanoyl)-5,5-dimethyl-thiazolidine-4-carboxylic acid (Z)-pent-2-enylamide] | 112 to 113 °C | 0.13 nM | 0.000161 mM
9 | Cc1c(O)cccc1C(=O)N[C@@H](Cc1ccccc1)[C@H](O)C(=O)N1CSC(C)(C)[C@H]1C(=O)NCc1cccc(N(C)C)c1 [Example A39, (R)-3-((2S,3S)-2-Hydroxy-3-{[1-(3-hydroxy-2-methyl-phenyl)-methanoyl]-amino}-4-phenyl-butanoyl)-5,5-dimethyl-thiazolidine-4-carboxylic acid 3-dimethylamino-benzylamide] | 105 to 106 °C | 0.27 nM | 0.000367 mM
10 | Cc1ccccc1CNC(=O)[C@H]1N(C(=O)[C@@H](O)[C@H](Cc2ccccc2)NC(=O)c2ccno2)CSC1(C)C [Example B2, Isoxazole-5-carboxylic acid {(1S,2S)-1-benzyl-3-[(R)-5,5-dimethyl-4-(2-methyl-benzylcarbamoyl)-thiazolidin-3-yl]-2-hydroxy-3-oxo-propyl}-amide] | 82 to 84 °C | 0.78 nM | 0.000369 mM
11 | Cc1ccccc1CNC(=O)[C@H]1N(C(=O)[C@@H](O)[C@H](Cc2ccccc2)NC(=O)c2cccs2)CSC1(C)C [Example B5, (R)-3-{(2S,3S)-2-Hydroxy-4-phenyl-3-[(1-thiophen-2-yl-methanoyl)-amino]-butanoyl}-5,5-dimethyl-thiazolidine-4-carboxylic acid 2-methyl-benzylamide] | 98 to 101 °C | 1.6 nM | 0.000508 mM
12 | Cc1ccccc1CNC(=O)[C@H]1N(C(=O)[C@@H](O)[C@H](Cc2ccccc2)NC(=O)c2ccsc2)CSC1(C)C [Example B6, (R)-3-{(2S,3S)-2-Hydroxy-4-phenyl-3-[(1-thiophen-3-yl-methanoyl)-amino]-butanoyl}-5,5-dimethyl-thiazolidine-4-carboxylic acid 2-methyl-benzylamide] | 98 to 100 °C | 1.6 nM | 0.000589 mM
13 | Cc1ccccc1CNC(=O)[C@H]1N(C(=O)[C@@H](O)[C@H](Cc2ccccc2)NC(=O)[C@@H]2CCCO2)CSC1(C)C [Example B7, (R)-3-{(2S,3S)-2-Hydroxy-4-phenyl-3-[((S)-1-tetrahydro-furan-2-yl-methanoyl)-amino]-butanoyl}-5,5-dimethyl-thiazolidine-4-carboxylic acid 2-methyl-benzylamide] | 82 to 84 °C | 1.9 nM | 0.00068 mM
14 | Cc1ccccc1CNC(=O)[C@H]1N(C(=O)[C@@H](O)[C@H](Cc2ccccc2)NC(=O)c2ccc(F)cc2C)CSC1(C)C [Example B37, (R)-3-((2S,3S)-3-{[1-(4-Fluoro-2-methyl-phenyl)-methanoyl]-amino}-2-hydroxy-4-phenyl-butanoyl)-5,5-dimethyl-thiazolidine-4-carboxylic acid 2-methyl-benzylamide] |  | 0.11 nM | 0.000736 mM
15 | Cc1ccccc1CNC(=O)[C@H]1N(C(=O)[C@@H](O)[C@H](Cc2ccccc2)NC(=O)c2cccc(N)n2)CSC1(C)C [Example B40, 6-Amino-pyridine-2-carboxylic acid {(1S,2S)-1-benzyl-3-[(R)-5,5-dimethyl-4-(2-methyl-benzylcarbamoyl)-thiazolidin-3-yl]-2-hydroxy-3-oxo-propyl}-amide] |  | 2.8 nM | 0.0014 mM
16 | Cc1ccccc1CNC(=O)C1N(C(=O)[C@@H](O)[C@H](Cc2ccccc2)NC(=O)c2cccnc2C)CSC1(C)C (stereo partly drawn) [Example B44, N-{(1S,2S)-1-Benzyl-3-[5,5-dimethyl-4-(2-methyl-benzylcarbamoyl)-thiazolidin-3-yl]-2-hydroxy-3-oxo-propyl}-2-methyl-nicotinamide] |  | 0.76 nM | 0.000629 mM
17 | Cc1ccccc1CNC(=O)[C@H]1N(C(=O)[C@@H](O)[C@H](Cc2ccccc2)NC(=O)c2cccc(O)n2)CSC1(C)C [Example B48] |  | 12 nM | > 0.0032 mM
18 | Cc1ccccc1CNC(=O)[C@@H]1C[C@H](F)CN1C(=O)[C@@H](O)[C@H](Cc1ccccc1)NC(=O)c1cccc(O)c1C [Example C3, (2S,4S)-4-Fluoro-1-[(2S,3S)-2-hydroxy-3-(3-hydroxy-2-methyl-benzoylamino)-4-phenyl-butyryl]-pyrrolidine-2-carboxylic acid 2-methyl-benzylamide] |  | 1.3 nM | 0.0005 mM
19 | Cc1ccccc1CNC(=O)[C@@H]1[C@H](C)OCN1C(=O)[C@@H](O)[C@H](Cc1ccccc1)NC(=O)c1cccc(O)c1C [Example C8, (4S,5S)-3-((2S,3S)-2-Hydroxy-3-{[1-(3-hydroxy-2-methyl-phenyl)-methanoyl]-amino}-4-phenyl-butanoyl)-5-methyl-oxazolidine-4-carboxylic acid 2-methyl-benzylamide] |  | 0.26 nM | 0.000447 mM
20 | Cc1ccc(F)cc1CNC(=O)[C@H]1N(C(=O)[C@@H](O)[C@H](Cc2ccccc2)NC(=O)c2cccc(O)c2C)COC1(C)C [Example C9, (S)-3-((2S,3S)-2-Hydroxy-3-{[1-(3-hydroxy-2-methyl-phenyl)-methanoyl]-amino}-4-phenyl-butanoyl)-5,5-dimethyl-oxazolidine-4-carboxylic acid 5-fluoro-2-methyl-benzylamide] |  | 0.34 nM | 0.000233 mM
21 | Cc1ccccc1CNC(=O)[C@H]1N(C(=O)[C@@H](O)[C@H](Cc2ccccc2)NC(=O)c2cccc(F)c2C)COC1(C)C [Example C11, (S)-3-((2S,3S)-3-{[1-(3-Fluoro-2-methyl-phenyl)-methanoyl]-amino}-2-hydroxy-4-phenyl-butanoyl)-5,5-dimethyl-oxazolidine-4-carboxylic acid 2-methyl-benzylamide] |  | 1.1 nM | 0.00156 mM
